Experimental data taken from patent US8129356B2, “Bmx mediated signal transduction in irradiated vascular endothelium” (Vanderbilt University, priority 2007, dated 2012).
“Also recorded” adds a separate entry of the source.

What was measured:
HUVEC [1] = assay: In vitro studies disclosed herein, comparison of Tec family inhibitors; format: cell-based, human
Bmx [2] = biological target: T1, Bmx (Homo sapiens, UniProt P51813); format: cell-based; settings: 30 μM pre-incubation, 3 Gy
T1 construct: host or cells: HUVEC
T1 sequence (P51813 1-675): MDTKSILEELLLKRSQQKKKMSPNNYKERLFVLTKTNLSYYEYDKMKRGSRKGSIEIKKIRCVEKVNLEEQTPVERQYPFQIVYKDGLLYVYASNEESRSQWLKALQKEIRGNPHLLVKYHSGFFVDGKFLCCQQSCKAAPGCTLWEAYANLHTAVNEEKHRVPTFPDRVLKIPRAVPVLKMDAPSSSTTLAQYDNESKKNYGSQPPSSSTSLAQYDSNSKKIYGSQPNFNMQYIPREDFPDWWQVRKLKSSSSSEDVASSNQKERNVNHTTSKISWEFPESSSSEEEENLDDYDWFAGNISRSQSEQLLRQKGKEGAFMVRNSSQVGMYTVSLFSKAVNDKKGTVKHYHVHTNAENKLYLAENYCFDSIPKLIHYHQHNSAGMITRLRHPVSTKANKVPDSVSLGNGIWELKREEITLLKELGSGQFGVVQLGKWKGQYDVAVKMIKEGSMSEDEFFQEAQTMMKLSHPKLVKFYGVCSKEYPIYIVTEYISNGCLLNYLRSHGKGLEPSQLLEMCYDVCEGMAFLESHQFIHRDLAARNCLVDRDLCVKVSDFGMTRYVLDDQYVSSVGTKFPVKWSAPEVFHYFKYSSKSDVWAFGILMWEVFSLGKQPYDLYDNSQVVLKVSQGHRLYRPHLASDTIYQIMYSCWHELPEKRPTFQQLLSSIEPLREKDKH
Procedure: Immunoprecipitation and in vitro kinase assay. HUVECs of passage 3-6 were grown to 70-80% confluency and then serum starved for 5 hours. The cells were then treated with sham or 3 Gy irradiation. After treatment, the cells were incubated at 37° C. with 5% CO2 for the indicated times. For inhibition studies, inhibitor was added at a 1:1000 dilution 60 minutes prior to irradiation. Following incubation, the tissue culture dishes were placed on ice and washed twice with ice cold 1× Phosphate-buffered Saline (PBS) followed by lysis using 400 μM-PER containing protease and phosphatase inhibitors (Sigma-Aldrich Co.) for 5 minutes. The cells were scraped and transferred to Eppendorf tubes, vortexed for 20 seconds, and incubated on ice for 30 minutes. After clearing the lysate by centrifugation at 15,000 g for 15 minutes at 4° C., the supernatant was quantified for protein concentration using the bicinchoninic acid (BCA) method prior to immunoprecipitation. Immunoprecipitation was performed using the CATCH AND RELEASE® v 2.0 system (Upstate Group, LLC, Charlottesville, Va., United States of America) according to manufacturer's protocol with some modification.
Briefly, spin columns containing binding resin were prepared by washing twice with 1× wash buffer (2000 g/30 seconds). […] This was added to the capped spin column which was rotated end-over-end overnight at 4° C. […]

HUVEC [3] = assay: Clonogenic survival assay in HUVEC; format: cell-based, human; settings: 30 μM
Procedure: Clonogenic survival. LLC's or passage 3-6 HUVECs were grown to 70-80% confluency. Cells were washed with 1×PBS, trypsin suspended, and were counted and adjusted to specific densities for each condition. The cells were plated on tissue culture plates and allowed to attach for 4 hours. […] Media was changed after irradiation. 10-14 days after irradiation, the plates were fixed with 70% ethanol and stained with 1% methylene blue. Colonies were then counted using a dissection microscopy with positive colonies containing at least 50 cells. Surviving fraction (SF) was calculated by the equation (number of colonies formed/number of cells plated)/(number of colonies for sham irradiated group/number of cells plated). Dose enhancing ratios were calculated by dividing the dose (Gy) for radiation alone by the dose for radiation plus treatment (normalized for plating efficiency of treatment) for which a SF of 0.2 is achieved.

HUVEC [4] = assay: Apoptosis assay, Annexin V/propidium iodide flow cytometry; format: cell-based, human; settings: 24 hours
Procedure: Apoptosis assays. HUVEC were grown to 70-80% confluency prior to treatment with LFM-A13 or DMSO control. Cells were then irradiated with 0 or 3 Gy and harvested 24 hours after irradiation. Annexin V-FITC Apoptosis Detection kit (BD PharMingen, San Diego, Calif., United States of America) was used to stain cells (propidium iodide (50 ng) and annexin V-FITC (5 ng) were added to 10^5 cells) for flow cytometry according to manufacturer's protocol. For each treatment, the percent of cells undergoing apoptosis (±SE) was calculated. Camptothecin (5 μmol/L) treatment for 6 hours served as positive control

HUVEC [5] = assay: Apoptosis assay, DAPI staining of nuclei; format: cell-based, human; settings: 30 μM plus 3 or 6 Gy, 24 hours
Procedure: HUVEC were also assayed for apoptosis using a 4′,6-Diamidino-2-phenylindole (DAPI) staining of the nuclei to identify cells undergoing morphological changes. […] Cells were returned to the incubator for an additional 24 hr prior to DAPI staining. Multiple high powered fields (at least 7) were examined by an observer who was blinded to the experimental conditions for each of the cultures. […] The mean and standard error were calculated for each treatment group.

HUVEC [6] = assay: Endothelial closure assay (migration across a gap); format: cell-based, human
Procedure: Endothelial closure assay. HUVEC of passage 3-6 were grown on glass slides and were subjected to gap formation as described previously (Cuneo et al., 2007). Cells were treated with LFM-A13 or DMSO control prior to 0 or 3 Gy and incubated for the indicated times. Photographs of cell defect and surrounding cells were taken and relative cell density within the defect was calculated as follows: (number of cells/original cell defect area)/(number of cells/surrounding area).

HUVEC [7] = assay: Endothelial cell tubule formation assay on MATRIGEL; format: cell-based, human; settings: 30 μM plus 3 Gy, vs either treatment alone
Procedure: Endothelial cell tubule formation assay. HUVEC of passage 3-6 were grown to 70-80% confluency. Cells were then washed with 1×PBS and suspended by trypsinization. Cells were counted and adjusted to 2.5-5×10^4 cells/ml in media. 75 μl MATRIGEL™ (BD Biosciences) were plated into each well of a 96 well plate and allowed to polymerize at 37° C. Cell suspensions (200 μl; […]) were added to each well. After thirty minutes, DMSO control or LFM-A13 was added. Thirty minutes later, dishes were treated with sham or 3 Gy and were then incubated until tubules had formed in control plates (4-6 hours). Digital photographs were taken of individual wells and tubules were counted by an observer blinded to the treatment conditions. The mean and standard error were calculated (n=3).

LLC tumor vasculature = assay: Tumor vascular window model; format: in vivo, C57BL/6 mice
Procedure: Tumor vascular window model. The tumor vascular window model technique is described in Edwards et al., 2002. Briefly, three mice for each group had tumors grown within a vascular window such that tumor vasculature could be visualized within window frames containing a coordinate system for serial photography. Animals were treated with LFM-A13 by i.p. injection 60 minutes prior to 2 Gy irradiation using an 80 kVp superficial X-ray machine (Pantak X-ray Generator; East Haven, Conn., United States of America). Serial color photographs were taken to document blood vessel appearance on days 0-7. Photographs were scanned and processed using ADOBE® PHOTOSHOP® software (Adobe Systems Inc., San Jose, Calif., United States of America) to mark the center of vessels, verified by an observer blinded to treatment groups. Vascular length density (VLD) was quantified for each microscopic field using IMAGE-PRO® Plus v. 5.1 software (Media Cybernetics, Inc. Silver Spring, Md., United States of America). The mean and standard error of VLD in each treatment group were calculated and plotted. All animals used were cared for according to Vanderbilt University's Institutional Animal Care and Use Committees guidelines.

[8] = test system: LLC hind limb tumor blood vessels; assay: Tumor immunohistochemistry (anti-CD34) in hind limb xenograft; format: in vivo, C57BL/6 mice; settings: 50 mg/kg i.p. daily, 45 minutes before 3 Gy, five treatments
Procedure: Tumor immunohistochemistry. LLC's were subcutaneously injected into the hind limb of C57BL/6 mice to form xenografts. When tumors grew to 200 mm^3, (approximately 7 days) the mice were treated with five consecutive daily treatments of i.p. LFM-A13 followed 45 minutes later by 3 Gy irradiation using an 80 kVp superficial x-ray generator. Twelve hours following the last radiation treatment, mice were sacrificed and tumors were harvested, fixed in paraffin, and sectioned by the Vanderbilt University Immunohistochemistry Core Facility as described previously (see Cuneo et al., 2007). Immunostaining was with goat anti-CD34 (Santa Cruz Biotechnology) and microvascular photos were analyzed using IMAGE-PRO® software with pixel number quantified.

[9] = test system: Lewis Lung Carcinoma (LLC) cell line; assay: Clonogenic survival assay in LLC; format: cell-based; settings: prior to 0, 2, 4, or 6 Gy
Procedure: Clonogenic survival. LLC's or passage 3-6 HUVECs were grown to 70-80% confluency. Cells were washed with 1×PBS, trypsin suspended, and were counted and adjusted to specific densities for each condition. The cells were plated on tissue culture plates and allowed to attach for 4 hours. LFM-A13 or DMSO was added at a 1:1000 dilution followed 60 min later by 0, 2, 4 or 6 Gy. Media was changed after irradiation. 10-14 days after irradiation, the plates were fixed with 70% ethanol and stained with 1% methylene blue. Colonies were then counted using a dissection microscopy with positive colonies containing at least 50 cells. Surviving fraction (SF) was calculated by the equation (number of colonies formed/number of cells plated)/(number of colonies for sham irradiated group/number of cells plated). Dose enhancing ratios were calculated by dividing the dose (Gy) for radiation alone by the dose for radiation plus treatment (normalized for plating efficiency of treatment) for which a SF of 0.2 is achieved.

LLC hind limb tumors = assay: Tumor growth delay; format: in vivo, C57BL/6 mice; settings: 5 consecutive days
Procedure: Tumor growth delay. LLC's were subcutaneously injected into the hind limb of C57/BL6 mice to form xenografts. When tumors grew to 200 mm^3, (approximately 7 days) the mice were treated with five consecutive daily treatments of i.p. LFM-A13 followed 45 minutes later by 3 Gy irradiation using an 80 kVp superficial x-ray generator. Serial measurements of tumor dimensions were taken by caliper and tumor volume was calculated using the modified ellipsoid formula (length×width×depth)/2. The mean and standard error were plotted using Microsoft Excel software.

Bmx [10] = biological target: T1, Bmx; settings: HUVEC, dose of 25 μM; cited from earlier work
[11] = murine studies, previously published; cited from earlier work

Row | Compound | effectiveness relative to LFM-A13 (HUVEC [1]) | radiation-induced Bmx activation (autophosphorylation) (Bmx [2]) | radiosensitization (surviving fraction, survival curve shift) (HUVEC [3]; 45 minutes prior to 0, 2, 4, or 6 Gy, colonies over 10 days) | dose enhancing ratio (DER) (HUVEC [3]; dose ratio at SF of 0.2) | apoptosis, combination with 3 Gy (HUVEC [4]; 30 μM plus 3 Gy) | early and late apoptosis, drug alone (HUVEC [4]; 30 μM, sham irradiation) | percent of apoptotic cells, combination with irradiation (HUVEC [5]) | endothelial cell closure (relative cell density in gap), drug alone (HUVEC [6]; 30 μM alone, 12 hours and 24 hours, vs vehicle control) | endothelial cell closure, combination with 3 Gy (HUVEC [6]; 30 μM for 45 minutes prior to 3 Gy, 12 and 24 hours) | number of tubules formed, combination with 3 Gy (HUVEC [7]) | tumor vascular window blood vessels, drug alone (LLC tumor vasculature; 50 mg/kg i.p. alone) | tumor blood vessels (mean vascular length density), combination with 2 Gy (LLC tumor vasculature; single 50 mg/kg i.p. prior to 2 Gy) | blood vessel formation (CD34 staining), combination with 3 Gy [8] | clonogenic survival compared to DMSO control [9] | tumor growth delay, combination with 3 Gy (LLC hind limb tumors; 50 mg/kg i.p. 45 minutes prior to 3 Gy) | tumor growth delay, drug alone (LLC hind limb tumors; 50 mg/kg i.p., sham irradiation) | VEGF induced signaling through Bmx inhibition (Bmx [10]) | tolerability [11]
1 | CC1=C(O)C(=O)[C@@H]2O[C@@H]2C1=O [terreic acid] | at least as effective as LFM-A13 |  |  |  |  |  |  |  |  |  |  |  |  |  |  |  |  | 
2 | C/C(O)=C(\C#N)C(=O)Nc1cc(Br)ccc1Br [LFM-A13, (2Z)-2-cyano-N-(2,5-dibromophenyl)-3-hydroxy-2-butenamide] |  | attenuated the activation of Bmx | radiosensitized HUVEC | 1.47 | statistically significant (p<0.001 vs. LFM-A13 or 3 Gy alone) increase in apoptosis | not capable of shifting cells into either early (Q4-1) or late (Q2-1) apoptosis | enhancement of apoptosis | minimal effect on attenuating endothelial cell closure | greater than additive effect | significant reduction (p<0.005) in tubules formed | minimally inhibited | dramatic reduction in tumor blood vessels | most effective at attenuating blood vessel formation | no difference in clonogenic survival | statistically significant enhancement of growth delay; also recorded: more than additive | small growth delay | block VEGF induced signaling | well-tolerated
